Test results as given in article PMC8277517, “Anticolon Cancer Properties of Pyrazole Derivatives Acting through Xanthine Oxidase Inhibition” (Journal of Oncology, 2021).
Read-outs that look alike come from different tables or passages of the source.

Columns and labels:
[1] = system: HCT-116 colorectal carcinoma cell line; design: method as in doi:10.2174/1570178617666200320104923; conditions: Figure 1 design strategy, earlier lead; cited from earlier work
[2] = system: MCF-7, HepG2, and HCT-116 cell lines; design: method as in doi:10.2174/1570178617666200320104923; conditions: read-out: IC50 inhibition of cell proliferation (range over cell lines); cited from earlier work
[3] = system: MCF-7 breast adenocarcinoma cell line; experiment: Sulforhodamine B (SRB) cytotoxicity assay, MCF-7; assay type: cell-based; conditions: Homo sapiens, MCF7, 72 h
Protocol: (§1) Human hepatocellular carcinoma cell line (HepG-2, ATCC HB-8065), colorectal adenocarcinoma cell line (HCT-116, ATCC CCL-247), and breast adenocarcinoma cell line (MCF-7, ATCC HTB-22) were obtained from the American type culture collection (ATCC). Cells were maintained in RPMI-1640 supplemented with (100 μg/ml) penicillin (100 units/ml) and heat-inactivated fetal bovine serum (10% v/v) in a humidified, 5% (v/v) CO2 atmosphere at 37°C [13].
(§2) The cytotoxicity of the different compounds was tested against human tumor cells using the sulforhodamine B assay (SRB). Healthy growing cells were cultured in a 96-well tissue culture plate (3000 cells/well) for 24 hours to allow attachment of the cells to the plate before treatment with the tested compounds. […] Triplicate wells were incubated with different concentrations for 72 h and subsequently fixed with TCA (10% w/v) for 1 h at 4°C. […] After drying overnight, the SRB-stained cells were dissolved with tris-HCl and the color intensity was measured in a microplate reader at 540 nm.
(§3) The SRB assay is the “gold-standard” assay and is extensively used in the high-throughput screening program at the National Cancer Institute (NCI), USA. The SRB uses an aminoxanthene dye, which readily stains the cells through binding with the basic amino acids of cellular proteins. […]

[4] = system: HepG2 hepatocellular carcinoma cell line; experiment: Sulforhodamine B (SRB) cytotoxicity assay, HepG2; assay type: cell-based; conditions: Homo sapiens, 72 h
Protocol: as §1, §2, §3

[5] = system: HCT-116 colorectal carcinoma cell line; experiment: Sulforhodamine B (SRB) cytotoxicity assay, HCT-116; assay type: cell-based; conditions: Homo sapiens, 72 h
Protocol: as §1, §2, §3

[6] = system: MCF-7 breast adenocarcinoma cell line; design: method as in doi:10.2174/1570178617666200320104923; conditions: Figure 1 design strategy, earlier lead; cited from earlier work

**Q.** Which IC50 [1] does the source give for `COc1ccc(/N=N/c2c(C)nn(C(=O)c3ccncc3)c2C)cc1` [Aryldiazenyl pyrazoles (ADP)] here?
**A.** The IC50 was 61.3 µM.

**Q.** Which IC50 [2] does the source give for `CC1=NN(C(=O)c2ccncc2)C(=O)C1=NNc1ccc([N+](=O)[O-])cc1` [1-isonicotinoyl-3-methyl-4-[2-(4-nitrophenyl)hydrazono]-2-pyrazolin-5-one] here?
**A.** The IC50 was 0.2 to 3.4 µM.

**Q.** With `COc1cccc2c1C(=O)c1c(O)c3c(c(O)c1C2=O)C[C@@](O)(C(=O)CO)C[C@@H]3O[C@H]1C[C@H](N)[C@H](O)[C@H](C)O1` [Doxorubicin] as the molecule, how does the IC50 [3] read?
**A.** Its IC50 is 4.7 ± 0.08 µM.

**Q.** And the IC50 [4]?
**A.** The IC50 was 3.9 ± 0.06 µM.

**Q.** What about the IC50 [5] of the same molecule?
**A.** Its IC50 is 4.4 ± 0.04 µM.

**Q.** Which IC50 [6] does the source give for `CC1=NN(C(=O)c2ccncc2)C(=O)/C1=N/Nc1ccc([N+](=O)[O-])cc1` [Arylhydrazono pyrazoles (AHP)] here?
**A.** The IC50 was 0.2 µM.
